Laboratory results published in US10450306B2, “Isoxazole analogs as FXR agonists and methods of use thereof” (Enanta Pharmaceuticals, Inc., priority 2016, dated 2019).
Like-named read-outs stand apart in the source and are kept apart here.

Molecular target: T1, human FXR (NR1H4) (Homo sapiens, UniProt Q96RI1)
T1 construct: host or cells: CHO (Chinese hamster ovary) reporter cells
T1 sequence (Q96RI1 1-486): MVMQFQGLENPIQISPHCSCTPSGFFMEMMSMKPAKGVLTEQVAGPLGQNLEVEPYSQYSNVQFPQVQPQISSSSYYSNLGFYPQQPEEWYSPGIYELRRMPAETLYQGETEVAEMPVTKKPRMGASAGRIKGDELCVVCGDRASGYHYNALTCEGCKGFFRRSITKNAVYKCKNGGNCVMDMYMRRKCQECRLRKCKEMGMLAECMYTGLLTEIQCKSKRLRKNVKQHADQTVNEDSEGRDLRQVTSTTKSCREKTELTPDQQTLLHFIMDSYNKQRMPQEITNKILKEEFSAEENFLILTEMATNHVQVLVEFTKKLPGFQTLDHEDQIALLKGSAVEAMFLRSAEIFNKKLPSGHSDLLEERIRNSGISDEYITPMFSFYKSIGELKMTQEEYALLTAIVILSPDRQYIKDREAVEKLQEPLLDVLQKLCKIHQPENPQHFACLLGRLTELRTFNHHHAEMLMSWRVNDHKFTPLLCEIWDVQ
Assay: Human FXR (NR1H4) Assay: Gal4 promoter driven luciferase reporter transactivation in CHO cells (Indigo Bioscience kit IB00601); on Efficacy (%): efficacy normalized to CDCA set as 100%
Assay type: cell-based
Excerpt: Human FXR (NR1H4) Assay Determination of a ligand mediated Gal4 promoter driven transactivation to quantify ligand binding mediated activation of FXR. FXR Reporter Assay kit purchased from Indigo Bioscience (Catalogue number: IB00601) to determine the potency and efficacy of compound developed by Enanta that can induce FXR activation. The principle application of this reporter assay system is to quantify functional activity of human FXR. The assay utilizes non-human mammalian cells, CHO (Chinese hamster ovary) cells engineered to express human NR1H4 protein (referred to as FXR). Reporter cells also incorporate the cDNA encoding beetle luciferase which catalyzes the substrates and yields photon emission. Luminescence intensity of the reaction is quantified using a plate-reading luminometer, Envision. Reporter Cells include the luciferase reporter gene functionally linked to an FXR responsive promoter. Thus, quantifying changes in luciferase expression in the treated reporter cells provides a sensitive surrogate measure of the changes in FXR activity. […] The assay is according to the manufacturer's instructions. In brief, the assay was performed in white, 96 well plates using final volume of 100 ul containing cells with different doses of compounds. Retrieve Reporter Cells from −80° C. storage. Perform a rapid thaw of the frozen cells by transferring a 10 ml volume of 37° C. cell recovery medium into the tube of frozen cells. Recap the tube of Reporter Cells and immediately place it in a 37° C. water bath for 5-10 minutes. Retrieve the tube of Reporter Cell Suspension from the water bath. Sanitize the outside surface of the tube with a 70% alcohol swab, and then transfer it into the cell culture hood. Dispense 90 μl of cell suspension into each well of the 96-well Assay Plate. Transfer the plate into 37° C. incubator, allowing the cells adherent to the bottom of the well. Dilute compounds in Dilution Plate (DP), and administrate to cells at Assay Plate (AP). DMSO content of the samples was kept at 0.2%. Cells were incubated for additional 22 hours before luciferase activities were measured. Thirty minutes before intending to quantify FXR activity, remove Detection Substrate and Detection Buffer from the refrigerator and place them in a low-light area so that they may equilibrate to room temperature. Remove the plate's lid and discard all media contents by ejecting it into an appropriate waste container. Gently tap the inverted plate onto a clean absorbent paper towel to remove residual droplets. Cells will remain tightly adhered to well bottoms. Add 100 ul of luciferase detection reagent to each well of the assay plate. Allow the assay plate to rest at room temperature for at least 5 minutes following the addition of LDR. Set the instrument (Envision) to perform a single 5 second “plate shake” prior to reading the first assay well. Read time may be 0.5 second (500 mSec) per well.

[1] = Human FXR (NR1H4) reporter assay, potency ranges

Structure (SMILES)	Emax (CHO; read-out: Efficacy (%)) [%]	EC50 [1] [µM]	Emax (CHO, read-out: Efficacy (%)) [%]
CN(C)S(=O)(=O)NC(=O)c1ccc2nc(N3C4CCC3CC(NCc3c(-c5c(Cl)cccc5Cl)noc3C3CC3)C4)sc2c1 (single isomer, unassigned) [Example 225]	126	< 0.001	–
CC(C)(C)c1ccc(S(=O)(=O)NC(=O)c2ccc3nc(N4C5CCC4CC(NCc4c(-c6c(Cl)cccc6Cl)noc4C4CC4)C5)sc3c2)cc1 (single isomer, unassigned) [Example 262]	289	< 0.001	–
CCOC(=O)c1ccc2nc(N3[C@@H]4CC[C@H]3C[C@@H](NCc3c(-c5c(Cl)cccc5Cl)noc3C3CC3)C4)sc2c1 [Example 1, ethyl 2-((1R,3R,5S)-3-(((5-cyclopropyl-3-(2,6-dichlorophenyl)isoxazol-4-yl)methyl)amino)-8-azabicyclo[3.2.1]octan-8-yl)benzo[d]thiazole-6-carboxylate]	74	> 1	–
O=C(O)c1ccc2nc(N3[C@@H]4CC[C@H]3C[C@@H](NCc3c(-c5c(Cl)cccc5Cl)noc3C3CC3)C4)sc2c1 [Example 2, 2-((1R,3R,5S)-3-(((5-cyclopropyl-3-(2,6-dichlorophenyl)isoxazol-4-yl)methyl)amino)-8-azabicyclo[3.2.1]octan-8-yl)benzo[d]thiazole-6-carboxylic acid]	244	0.001 to 0.1	–
COC(=O)c1cc(F)c2nc(N3C4CCC3CC(NCc3c(-c5c(Cl)cccc5Cl)noc3C3CC3)C4)sc2c1 (centres unmarked) [Example 3]	137	0.001 to 0.1	–
O=C(O)c1cc(F)c2nc(N3[C@@H]4CC[C@H]3C[C@@H](NCc3c(-c5c(Cl)cccc5Cl)noc3C3CC3)C4)sc2c1 [Example 4, 2-((1R,3R,5S)-3-(((5-cyclopropyl-3-(2,6-dichlorophenyl)isoxazol-4-yl)methyl)amino)-8-azabicyclo[3.2.1]octan-8-yl)-4-fluorobenzo[d]thiazole-6-carboxylic acid]	169	< 0.001	–
COC(=O)c1cc(OC)c2nc(N3C4CCC3CC(NCc3c(-c5c(Cl)cccc5Cl)noc3C3CC3)C4)sc2c1 (centres unmarked) [Example 5]	145	0.001 to 0.1	–
COc1cc(C(=O)O)cc2sc(N3C4CCC3CC(NCc3c(-c5c(Cl)cccc5Cl)noc3C3CC3)C4)nc12 (centres unmarked) [Example 6]	153	< 0.001	–
COC(=O)c1cc(C)c2nc(N3C4CCC3CC(NCc3c(-c5c(Cl)cccc5Cl)noc3C3CC3)C4)sc2c1 (centres unmarked) [Example 7]	37	0.001 to 0.1	–
Cc1cc(C(=O)O)cc2sc(N3C4CCC3CC(NCc3c(-c5c(Cl)cccc5Cl)noc3C3CC3)C4)nc12 (centres unmarked) [Example 8]	109	< 0.001	–
COC(=O)c1ccc2nc(N3C4CCC3CC(NCc3c(-c5c(Cl)cccc5Cl)noc3C3CC3)C4)oc2c1 (centres unmarked) [Example 19]	78	0.1 to 1	–
O=C(O)c1ccc2nc(N3C4CCC3CC(NCc3c(-c5c(Cl)cccc5Cl)noc3C3CC3)C4)oc2c1 (centres unmarked) [Example 20]	56	0.001 to 0.1	–
COC(=O)c1ccc2cc(N3[C@@H]4CC[C@H]3C[C@@H](NCc3c(-c5c(Cl)cccc5Cl)noc3C3CC3)C4)ccc2c1 [Example 49, methyl 6-((1R,3R,5S)-3-(((5-cyclopropyl-3-(2,6-dichlorophenyl)isoxazol-4-yl)methyl)amino)-8-azabicyclo[3.2.1]octan-8-yl)-2-naphthoate]	135	0.001 to 0.1	–
O=C(O)c1ccc2cc(N3C4CCC3CC(NCc3c(-c5c(Cl)cccc5Cl)noc3C3CC3)C4)ccc2c1 (centres unmarked) [Example 50]	186	< 0.001	–
COC(=O)c1ccc2nc(N3C4CCC3CC(NCc3c(-c5c(Cl)cccc5Cl)noc3C3CC3)C4)cnc2c1 (centres unmarked) [Example 64]	40	0.001 to 0.1	–
CC(C)(C)OC(=O)CNC(=O)c1cc(F)c2nc(N3C4CCC3CC(NCc3c(-c5c(Cl)cccc5Cl)noc3C3CC3)C4)sc2c1 [Example 95, tert-butyl (2-((1R,3r,5S)-3-(((5-cyclopropyl-3-(2,6-dichlorophenyl)isoxazol-4-yl)methyl)amino)-8-azabicyclo[3.2.1]octan-8-yl)-4-fluorobenzo[d]thiazole-6-carbonyl)glycinate]	128	0.001 to 0.1	–
O=C(O)CNC(=O)c1cc(F)c2nc(N3C4CCC3CC(NCc3c(-c5c(Cl)cccc5Cl)noc3C3CC3)C4)sc2c1 (centres unmarked) [Example 96]	136	0.001 to 0.1	–

Structure (SMILES)	Emax (CHO; read-out: Efficacy (%)) [%]	EC50 [1] [µM]	Emax (CHO, read-out: Efficacy (%)) [%]
O=C(O)c1ccc(N2C3CCC2CC(NCc2c(-c4c(Cl)cccc4Cl)noc2C2CC2)C3)c(F)c1 [Example 122, 4-((1R,3r,5S)-3-(((5-cyclopropyl-3-(2,6-dichlorophenyl)isoxazol-4-yl)methyl)amino)-8-azabicyclo[3.2.1]octan-8-yl)-3-fluorobenzoic acid]	90	0.001 to 0.1	–
O=C(O)c1ccc(N2C3CCC2CC(NCc2c(-c4c(Cl)cccc4Cl)noc2C2CC2)C3)nc1 (centres unmarked) [Example 125]	86.5	0.001 to 0.1	–
Fc1cc(-c2nn[nH]n2)ccc1N1C2CCC1CC(NCc1c(-c3c(Cl)cccc3Cl)noc1C1CC1)C2 (centres unmarked) [Example 138]	155	< 0.001	–
CC(C)(C)Oc1ccc(S(=O)(=O)NC(=O)OCc2ccc3nc(N4C5CCC4CC(NCc4c(-c6c(Cl)cccc6Cl)noc4C4CC4)C5)sc3c2)cc1 (centres unmarked) [Example 153]	113	0.001 to 0.1	–
CCOC(=O)c1ccc2nc(N3[C@@H]4CC[C@H]3C[C@@H](N(C)Cc3c(-c5c(Cl)cccc5Cl)noc3C3CC3)C4)sc2c1 [Example 165, ethyl 2-((1R,3R,5S)-3-(((5-cyclopropyl-3-(2,6-dichlorophenyl)isoxazol-4-yl)methyl)(methyl)amino)-8-azabicyclo[3.2.1]octan-8-yl)benzo[d]thiazole-6-carboxylate]	236	0.001 to 0.1	–
CCOC(=O)c1ccc2nc(N(C)C3CCC(OCc4c(-c5c(Cl)cccc5Cl)noc4C4CC4)CC3)sc2c1 (centres unmarked) [Example 169]	38	> 1	–
CN(c1nc2ccc(C(=O)O)cc2s1)C1CCC(OCc2c(-c3c(Cl)cccc3Cl)noc2C2CC2)CC1 (centres unmarked) [Example 170]	105	0.1 to 1	–
O=C(O)c1ccc2nc(N3CCN(Cc4c(-c5c(Cl)cccc5Cl)noc4C4CC4)CC3)sc2c1 [Example 172]	257	0.1 to 1	–
CCOC(=O)c1ccc2nc(N3CCC(NCc4c(-c5c(Cl)cccc5Cl)noc4C4CC4)CC3)sc2c1 [Example 173]	116	> 1	–
O=C(O)c1ccc2nc(N3CCC(NCc4c(-c5c(Cl)cccc5Cl)noc4C4CC4)CC3)sc2c1 [Example 174]	132	0.001 to 0.1	–
O=C(O)c1ccc2nc(N3C4CCC3CN(Cc3c(-c5c(Cl)cccc5Cl)noc3C3CC3)C4)sc2c1 [Example 176]	228	0.1 to 1	–
O=C(O)c1ccc2nc(N3[C@@H]4CC[C@H]3C[C@H](NCc3c(-c5c(Cl)cccc5Cl)noc3C3CC3)C4)sc2c1 [Example 178]	108	> 1	–
COC(=O)c1ccc2nc(N3C4CCC3CC(N(C)Cc3c(-c5c(Cl)cccc5Cl)noc3C3CC3)C4)sc2c1 (centres unmarked) [Example 179]	148	0.1 to 1	–
CCOC(=O)c1ccc2nc(NC3CCN(Cc4c(-c5c(Cl)cccc5Cl)noc4C4CC4)CC3)sc2c1 [Example 183]	119	> 1	–
CN(Cc1c(-c2c(Cl)cccc2Cl)noc1C1CC1)C1CCN(c2nc3ccc(C(=O)O)cc3s2)CC1 [Example 186]	45	> 1	–
COC(=O)c1cccc(N2CCN(Cc3c(-c4c(Cl)cccc4Cl)noc3C3CC3)CC2)c1 [Example 187]	–	> 1	64
O=C(O)c1cccc(N2CCN(Cc3c(-c4c(Cl)cccc4Cl)noc3C3CC3)CC2)c1 [Example 188]	15	> 1	–
